Earlier results in patent US9622967B2, “Highly stable compositions of orally active nucleotide analogues or orally active nucleotide analogue prodrugs” (Sigmapharm Laboratories, LLC, priority 2010, dated 2017).
Structures can show the parent of a compound that is named as a salt.

## CC(C)OC(=O)OCOP(=O)(CO[C@H](C)Cn1cnc2c(N)ncnc21)OCOC(=O)OC(C)C [tenofovir disoproxil fumarate]
3 days at 60° C. and 75% RH
  monoester mono(POC)-PMPA formed, weight percentage: 3.1%
Soon after production
  monoester mono(POC)PMPA already formed soon after production: up to 1.0 % w/w
